Assay results reported in BindingDB's records for PubMed 11160626 (Japan Tobacco, 2001).

Tests used:
Cannabinoid receptor 1 [1] = target: Cannabinoid receptor 1 (Rattus norvegicus, UniProt P20272)
Cannabinoid receptor 1 [2] = target: Cannabinoid receptor 1 (Mus musculus, UniProt P47746)
Cannabinoid receptor 2 [3] = target: Cannabinoid receptor 2 (Mus musculus, UniProt P47936)
Cannabinoid receptor 2 [4] = target: T1, Cannabinoid receptor 2 (Rattus norvegicus, UniProt Q9QZN9)
T1 sequence (Q9QZN9 whole entry): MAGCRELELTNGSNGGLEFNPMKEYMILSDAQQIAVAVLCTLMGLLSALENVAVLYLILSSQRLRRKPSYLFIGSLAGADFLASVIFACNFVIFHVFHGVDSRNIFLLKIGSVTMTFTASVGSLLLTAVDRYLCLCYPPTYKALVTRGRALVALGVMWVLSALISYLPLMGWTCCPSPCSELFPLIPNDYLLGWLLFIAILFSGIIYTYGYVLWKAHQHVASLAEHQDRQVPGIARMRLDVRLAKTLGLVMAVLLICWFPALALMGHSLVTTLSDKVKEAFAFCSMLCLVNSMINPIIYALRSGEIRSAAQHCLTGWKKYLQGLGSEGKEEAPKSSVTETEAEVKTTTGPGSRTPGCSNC

Sequence of Cannabinoid receptor 2 (Mus musculus, UniProt P47936) (P47936 whole entry): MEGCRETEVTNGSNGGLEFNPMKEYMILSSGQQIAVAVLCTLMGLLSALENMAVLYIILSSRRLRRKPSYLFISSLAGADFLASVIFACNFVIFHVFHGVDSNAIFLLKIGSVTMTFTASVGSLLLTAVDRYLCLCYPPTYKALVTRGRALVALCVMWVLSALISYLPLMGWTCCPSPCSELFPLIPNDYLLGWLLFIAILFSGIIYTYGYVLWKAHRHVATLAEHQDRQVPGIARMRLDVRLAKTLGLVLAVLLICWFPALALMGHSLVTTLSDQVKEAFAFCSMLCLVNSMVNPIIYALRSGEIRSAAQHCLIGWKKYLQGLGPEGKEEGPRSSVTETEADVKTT
Sequence of Cannabinoid receptor 1 (Rattus norvegicus, UniProt P20272) (P20272 whole entry): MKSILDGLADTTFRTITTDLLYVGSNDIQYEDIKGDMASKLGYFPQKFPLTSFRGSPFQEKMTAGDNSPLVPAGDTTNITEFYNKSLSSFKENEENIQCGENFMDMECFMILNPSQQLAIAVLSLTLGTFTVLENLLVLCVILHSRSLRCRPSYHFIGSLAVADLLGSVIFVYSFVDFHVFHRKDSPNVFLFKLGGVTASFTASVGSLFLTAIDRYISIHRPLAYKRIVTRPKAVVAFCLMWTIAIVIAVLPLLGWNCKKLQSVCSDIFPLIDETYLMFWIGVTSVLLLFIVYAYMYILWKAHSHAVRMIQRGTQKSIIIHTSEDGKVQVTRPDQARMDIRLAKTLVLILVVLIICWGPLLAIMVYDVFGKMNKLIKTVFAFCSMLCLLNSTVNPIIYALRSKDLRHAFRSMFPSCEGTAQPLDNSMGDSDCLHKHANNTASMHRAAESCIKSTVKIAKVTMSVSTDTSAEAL
Sequence of Cannabinoid receptor 1 (Mus musculus, UniProt P47746) (P47746 whole entry): as the sequence (P20272 whole entry) above, with E95D counted along it

Row | Compound | Ki (Cannabinoid receptor 1 [1]) | Ki (Cannabinoid receptor 1 [2]) | Ki (Cannabinoid receptor 2 [3]) | Ki (Cannabinoid receptor 2 [4])
1 | CCCCCOc1c(OC)ccc2cc(C(=O)NCc3ccc4c(c3)OCO4)c(=O)[nH]c12 [N-(1,3-Benzodioxole-5-ylmethyl)-2-oxo-7-methoxy-8-pentoxy-1,2-dihydro-3-quinolinecarboxamide] | 1050 nM | 1060 nM | 1.55 nM | 0.38 nM
2 | Cc1c(C(=O)c2cccc3ccccc23)c2cccc3c2n1[C@H](CN1CCOCC1)CO3 [WIN55212-2] |  |  | 0.56 nM | 
3 | CCCCCc1cc(O)c2c(c1)OC(C)(C)[C@@H]1CCC(C)=CC21 (stereo partly specified) [Tetrahydrocannabinol] |  |  | 1.73 nM | 
